Values of other authors in patent US4699782A (Delalande S.A., priority 1983, dated 1987).

Details: human, in vivo; cited from earlier work

C#CCN(C)CCCOc1ccc(Cl)cc1Cl [Clorgyline]
dose of Tyramine from which hypertensive effects were recorded: ≥ 6 mg
